Source: patent publication US12077503B2, “Substituted cyclic amides and their use as herbicides” (FMC CORPORATION, priority 2015, dated 2024)

Tests used:
Experiment in all cases: Test C preemergence
Format in all cases: in vivo
[1] = test system: crabgrass, large (large crabgrass, Digitaria sanguinalis); details: for Plant response rating, Crabgrass, Large: scale 0 to 100, 0 no effect, 100 complete control
Method in brief: (§1)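 Scores of 0 to 100 reflect visual comparison with control plants, where 0 means no effect and 100 complete control, made 13 to 15 d after treatment. Application was preemergence to seeds in loam-sand soil or postemergence to plants 2 to 18 cm tall in peat-based mix, using a surfactant-containing solvent formulation.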

[2] = test system: wheat (winter wheat, Triticum aestivum); details: for Plant response rating, Wheat: scale 0 to 100, 0 no effect, 100 complete control
Method in brief: as §1

[3] = test system: ragweed (common ragweed, Ambrosia elatior); details: for Plant response rating, Ragweed: scale 0 to 100, 0 no effect, 100 complete control
Method in brief: as §1

[4] = test system: blackgrass (Alopecurus myosuroides); details: for Plant response rating, Blackgrass: scale 0 to 100, 0 no effect, 100 complete control
Method in brief: as §1

[5] = test system: morningglory (Ipomoea coccinea); details: for Plant response rating, Morningglory: scale 0 to 100, 0 no effect, 100 complete control
Method in brief: as §1

[6] = test system: Galium (catchweed bedstraw, Galium aparine); details: for Plant response rating, Galium: scale 0 to 100, 0 no effect, 100 complete control
Method in brief: as §1

[7] = test system: ryegrass, Italian (Italian ryegrass, Lolium multiflorum); details: for Plant response rating, Ryegrass, Italian: scale 0 to 100, 0 no effect, 100 complete control
Method in brief: as §1

[8] = test system: barnyardgrass (Echinochloa crus-galli); details: for Plant response rating, Barnyardgrass: scale 0 to 100, 0 no effect, 100 complete control
Method in brief: as §1

[9] = test system: velvetleaf (Abutilon theophrasti); details: for Plant response rating, Velvetleaf: scale 0 to 100, 0 no effect, 100 complete control
Method in brief: as §1

[10] = test system: nutsedge, yellow (yellow nutsedge, Cyperus esculentus); details: for Plant response rating, Nutsedge, Yellow: scale 0 to 100, 0 no effect, 100 complete control
Method in brief: as §1

[11] = test system: johnsongrass (Sorghum halepense); details: for Plant response rating, Johnsongrass: scale 0 to 100, 0 no effect, 100 complete control
Method in brief: as §1

[12] = test system: oilseed rape (Brassica napus); details: for Plant response rating, Oilseed Rape: scale 0 to 100, 0 no effect, 100 complete control
Method in brief: as §1

[13] = test system: foxtail, giant (giant foxtail, Setaria faberii); details: for Plant response rating, Foxtail, Giant: scale 0 to 100, 0 no effect, 100 complete control
Method in brief: as §1

[14] = test system: pigweed (Amaranthus retroflexus); details: for Plant response rating, Pigweed: scale 0 to 100, 0 no effect, 100 complete control
Method in brief: as §1

soybean (Glycine max) = details: for Plant response rating, Soybean: scale 0 to 100, 0 no effect, 100 complete control
Method in brief: as §1

[15] = test system: lambsquarters (Chenopodium album); details: for Plant response rating, Lambsquarters: scale 0 to 100, 0 no effect, 100 complete control
Method in brief: as §1

corn (Zea mays) = details: for Plant response rating, Corn: scale 0 to 100, 0 no effect, 100 complete control
Method in brief: as §1

[16] = test system: waterhemp (common waterhemp, Amaranthus rudis); details: for Plant response rating, Waterhemp: scale 0 to 100, 0 no effect, 100 complete control
Method in brief: as §1

[17] = 31 g ai/ha, 0 is no effect, 100 is complete control

CN1CC(c2cccc(OC(F)F)c2)C(C(=O)Nc2ccccc2S(C)(=O)=O)C1=O (stereo not drawn) [Compound 523]
Plant response rating (scale of 0 to 100), Crabgrass, Large [1, 17]: 90 | Plant response rating, Crabgrass, Large ([1]; 62 g ai/ha): 95 | Plant response rating, Crabgrass, Large ([1]; 125 g ai/ha): 100 | Plant response rating, Crabgrass, Large ([1]; 250 g ai/ha): 98 | Plant response rating (scale of 0 to 100), Wheat [2, 17]: 0 | Plant response rating, Wheat ([2]; 62 g ai/ha): 30 | Plant response rating, Wheat ([2]; 125 g ai/ha): 50 | Plant response rating, Wheat ([2]; 250 g ai/ha): 80 | Plant response rating (scale of 0 to 100), Ragweed [3, 17]: 5 | Plant response rating, Ragweed ([3]; 62 g ai/ha): 15 | Plant response rating, Ragweed ([3]; 125 g ai/ha): 40 | Plant response rating, Ragweed ([3]; 250 g ai/ha): 70 | Plant response rating (scale of 0 to 100), Blackgrass [4, 17]: 0 | Plant response rating, Blackgrass ([4]; 62 g ai/ha): 0 | Plant response rating, Blackgrass ([4]; 125 g ai/ha): 20 | Plant response rating, Blackgrass ([4]; 250 g ai/ha): 90 | Plant response rating (scale of 0 to 100), Morningglory [5, 17]: 20 | Plant response rating, Morningglory ([5]; 62 g ai/ha): 35 | Plant response rating, Morningglory ([5]; 125 g ai/ha): 25 | Plant response rating, Morningglory ([5]; 250 g ai/ha): 35 | Plant response rating (scale of 0 to 100), Galium [6, 17]: 0 | Plant response rating, Galium ([6]; 62 g ai/ha): 80 | Plant response rating, Galium ([6]; 125 g ai/ha): 80 | Plant response rating, Galium ([6]; 250 g ai/ha): 80 | Plant response rating (scale of 0 to 100), Ryegrass, Italian [7, 17]: 0 | Plant response rating, Ryegrass, Italian ([7]; 62 g ai/ha): 5 | Plant response rating, Ryegrass, Italian ([7]; 125 g ai/ha): 5 | Plant response rating, Ryegrass, Italian ([7]; 250 g ai/ha): 20 | Plant response rating (scale of 0 to 100), Barnyardgrass [8, 17]: 65 | Plant response rating, Barnyardgrass ([8]; 62 g ai/ha): 95 | Plant response rating, Barnyardgrass ([8]; 125 g ai/ha): 98 | Plant response rating, Barnyardgrass ([8]; 250 g ai/ha): 100 | Plant response rating (scale of 0 to 100), Velvetleaf [9, 17]: 0 | Plant response rating, Velvetleaf ([9]; 62 g ai/ha): 0 | Plant response rating, Velvetleaf ([9]; 125 g ai/ha): 30 | Plant response rating, Velvetleaf ([9]; 250 g ai/ha): 45 | Plant response rating (scale of 0 to 100), Nutsedge, Yellow [10, 17]: 0 | Plant response rating, Nutsedge, Yellow ([10]; 62 g ai/ha): 0 | Plant response rating, Nutsedge, Yellow ([10]; 125 g ai/ha): 0 | Plant response rating, Nutsedge, Yellow ([10]; 250 g ai/ha): 40 | Plant response rating (scale of 0 to 100), Johnsongrass [11, 17]: 0 | Plant response rating, Johnsongrass ([11]; 62 g ai/ha): 30 | Plant response rating, Johnsongrass ([11]; 125 g ai/ha): 60 | Plant response rating, Johnsongrass ([11]; 250 g ai/ha): 70 | Plant response rating (scale of 0 to 100), Oilseed Rape [12, 17]: 0 | Plant response rating, Oilseed Rape ([12]; 62 g ai/ha): 0 | Plant response rating, Oilseed Rape ([12]; 125 g ai/ha): 30 | Plant response rating, Oilseed Rape ([12]; 250 g ai/ha): 60 | Plant response rating (scale of 0 to 100), Foxtail, Giant [13, 17]: 85 | Plant response rating, Foxtail, Giant ([13]; 62 g ai/ha): 90 | Plant response rating, Foxtail, Giant ([13]; 125 g ai/ha): 98 | Plant response rating, Foxtail, Giant ([13]; 250 g ai/ha): 98 | Plant response rating (scale of 0 to 100), Pigweed [14, 17]: 75 | Plant response rating, Pigweed ([14]; 62 g ai/ha): 100 | Plant response rating, Pigweed ([14]; 125 g ai/ha): 90 | Plant response rating, Pigweed ([14]; 250 g ai/ha): 90 | Plant response rating (scale of 0 to 100), Soybean (soybean (Glycine max); [17]): 10 | Plant response rating, Soybean (soybean (Glycine max); 62 g ai/ha): 25 | Plant response rating, Soybean (soybean (Glycine max); 125 g ai/ha): 30 | Plant response rating, Soybean (soybean (Glycine max); 250 g ai/ha): 45 | Plant response rating (scale of 0 to 100), Lambsquarters [15, 17]: 20 | Plant response rating, Lambsquarters ([15]; 62 g ai/ha): 70 | Plant response rating, Lambsquarters ([15]; 125 g ai/ha): 70 | Plant response rating, Lambsquarters ([15]; 250 g ai/ha): 65 | Plant response rating (scale of 0 to 100), Corn (corn (Zea mays); [17]): 0 | Plant response rating, Corn (corn (Zea mays); 62 g ai/ha): 20 | Plant response rating, Corn (corn (Zea mays); 125 g ai/ha): 65 | Plant response rating, Corn (corn (Zea mays); 250 g ai/ha): 85 | Plant response rating (scale of 0 to 100), Waterhemp [16, 17]: 55 | Plant response rating, Waterhemp ([16]; 62 g ai/ha): 65 | Plant response rating, Waterhemp ([16]; 125 g ai/ha): 65 | Plant response rating, Waterhemp ([16]; 250 g ai/ha): 80
